Data on 35 molecules can be found in patent publication US20050096327A1, “Novel norepinephrine reuptake inhibitors for the treatment of central nervous system disorders” (priority 2003, published 2005).

pKi: −log10 of the molar value. Counter-ions that a name gives are not always drawn.

Assay [1] has as its target T1, human serotonin transporter (Homo sapiens, UniProt P31645).
T1 construct: host or cells: HEK-293
The assay can be described thus: hSERT receptor binding ([125I]-RTI-55, membranes of transfected HEK-293 cells). Particulars: 50 pM [125I]-RTI-55, 90 min room temperature; IC50 converted by Cheng-Prusoff. Here is the method: Cell pastes of HEK-293 cells transfected with the human serotonin transporter were supplied by the Pfizer Ann Arbor Protein Expression and Production Group. Pellets were resuspended in 400 to 700 mL of Krebs-HEPES assay buffer (25 mM HEPES, 122 mM NaCl, 3 mM KCl, 1.2 mM MgSO4, 1.3 mM CaCl2, and 11 mM glucose, pH 7.4) with a Polytron homogenizer at Setting 7 for 30 seconds. Aliquots of membranes (˜2.5 mg/mL protein) were stored in liquid nitrogen until used.
Assays were set up in FlashPlates pre-coated with 0.1% PEI in a total volume of 250 μL containing: drug (10^−5M to 10^−12M), cell membranes, and 50 pM [^125I]-RTI-55 (Perkin Elmer, NEX-272; specific activity 2200 Ci/mmol). The reaction was incubated and gently agitated for 90 minutes at room temperature, and terminated by removal of assay volume. Plates were covered, and bound [^125I]-RTI-55 was determined using a Wallac Trilux Beta Plate Counter. Test compounds were run in duplicate, and specific binding was defined as the difference between binding in the presence and absence of 10 μM citalopram.
Excel and GraphPad Prism software were used for data calculation and analysis. IC50 values were converted to Ki values using the Cheng-Prusoff equation. The Ki values for the hSERT are reported below in Table 1.

For assay [2], the target named is T2, human norepinephrine transporter (Homo sapiens, UniProt P23975).
T2 construct: host or cells: HEK-293
T2 sequence (P23975 whole entry): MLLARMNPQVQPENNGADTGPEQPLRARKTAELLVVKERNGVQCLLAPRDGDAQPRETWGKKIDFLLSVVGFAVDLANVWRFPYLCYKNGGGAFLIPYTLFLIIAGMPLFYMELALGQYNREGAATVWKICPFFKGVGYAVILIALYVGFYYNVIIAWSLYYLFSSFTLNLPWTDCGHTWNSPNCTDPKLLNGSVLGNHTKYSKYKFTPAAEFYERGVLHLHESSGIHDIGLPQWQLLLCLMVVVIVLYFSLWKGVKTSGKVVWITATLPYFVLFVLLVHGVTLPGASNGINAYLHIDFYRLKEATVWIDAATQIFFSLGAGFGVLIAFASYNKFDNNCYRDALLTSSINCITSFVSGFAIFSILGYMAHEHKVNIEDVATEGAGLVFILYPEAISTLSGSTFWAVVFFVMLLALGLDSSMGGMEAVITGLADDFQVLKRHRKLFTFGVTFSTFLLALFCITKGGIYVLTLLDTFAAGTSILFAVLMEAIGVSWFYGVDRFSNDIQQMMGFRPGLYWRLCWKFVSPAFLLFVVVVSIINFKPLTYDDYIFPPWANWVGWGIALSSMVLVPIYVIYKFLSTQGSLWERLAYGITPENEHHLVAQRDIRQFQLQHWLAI
The assay is described as follows: hNET receptor binding ([125I]-RTI-55, membranes of transfected HEK-293 cells). Particulars: 50 pM [125I]-RTI-55, 90 min room temperature; IC50 converted by Cheng-Prusoff. The protocol:
Cell pastes of HEK-293 cells transfected with the human norepinephrine transporter were supplied by the Pfizer Ann Arbor Protein Expression and Production group. Pellets were resuspended in 400 to 700 ml of Krebs-HEPES assay buffer (25 mM HEPES, 122 mM NaCl, 3 mM KCl, 1.2 mM MgSO4, 1.3 mM CaCl2, and 11 mM glucose, pH 7.4) with a Polytron homogenizer at setting 7 for 30 sec. Aliquots of membranes (5 mg/ml protein) were stored in liquid nitrogen until used.
The binding assay was set up in Beckman deep-well polypropylene plates with a total volume of 250 μl containing: drug (10^−5M to 10^−12M), cell membranes, and 50 pM [^125I]-RTI-55 (Perkin Elmer, NEX-272; specific activity 2200 Ci/mmol). The reaction was incubated by gentle agitation for 90 min at room temperature and was terminated by filtration through Whatman GF/C filter plates using a Brandel 96-well plate harvester. Scintillation fluid (100 μl) was added to each well, and bound [^125I]-RTI-55 was determined using a Wallac Trilux Beta Plate Counter. Test compounds were run in duplicate, and specific binding was defined as the difference between binding in the presence and absence of 10 μM desipramine.
Excel and GraphPad Prism software were used for data calculation and analysis. IC50 values were converted to Ki values using the Cheng-Prusoff equation. The Ki values for the hNET are reported below in Table 1.

T1 sequence (P31645 whole entry): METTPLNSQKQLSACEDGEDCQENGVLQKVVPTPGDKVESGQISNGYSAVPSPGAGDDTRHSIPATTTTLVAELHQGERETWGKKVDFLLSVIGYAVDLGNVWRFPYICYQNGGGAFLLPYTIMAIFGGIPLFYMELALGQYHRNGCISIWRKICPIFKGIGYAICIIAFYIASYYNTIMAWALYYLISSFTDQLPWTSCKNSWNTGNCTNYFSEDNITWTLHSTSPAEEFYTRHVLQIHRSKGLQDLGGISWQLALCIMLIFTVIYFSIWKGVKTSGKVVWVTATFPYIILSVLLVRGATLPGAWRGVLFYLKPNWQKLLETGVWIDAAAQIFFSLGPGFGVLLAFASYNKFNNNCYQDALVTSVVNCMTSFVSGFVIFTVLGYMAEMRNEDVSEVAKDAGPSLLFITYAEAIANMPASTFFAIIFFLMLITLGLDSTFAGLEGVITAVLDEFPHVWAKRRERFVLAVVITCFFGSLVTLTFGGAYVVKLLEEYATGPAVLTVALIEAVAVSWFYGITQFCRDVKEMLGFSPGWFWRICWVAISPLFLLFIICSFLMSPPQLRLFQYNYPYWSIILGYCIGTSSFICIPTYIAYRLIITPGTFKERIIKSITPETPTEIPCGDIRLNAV

In general, pKi refers to −log10 of the Ki, conventionally taken in molar units. Regarding `COc1ccccc1-c1nc(N2CCNCC2)nc2cc(F)ccc12` [Example 136, 4-(2-Methoxy-phenyl)-7-fluoro-2-piperazin-1-yl-quinazoline], the pKi is 7.12 in assay [1] and 7.37 in assay [2]. For “S-[4-(2,4-Difluoro-phenyl)-7-fluoro-quinazolin-2-yl]-pyrrolidin-3-yl-amine [Example 144]”, in that order: 7.58 and 7.63. Regarding `Cc1cc(F)ccc1-c1nc(N2CCNCC2)nc2cc(Cl)ccc12` [Example 118, 7-Chloro-4-(4-fluoro-2-methyl-phenyl)-2-piperazin-1-yl-quinazoline], the pKi is 7.31 in assay [1] and 7.17 in assay [2]. For `Fc1cccc(F)c1-c1nc(NC2CCNCC2)nc2ccccc12` [Example 148, [4-(2,6-Difluoro-phenyl)-quinazolin-2-yl]-piperidin-4-yl-amine], in that order: 5.39 and 6.57. The like results for `C[C@@H]1CNCCN1c1nc(-c2c(F)cccc2F)c2ccc(F)cc2n1` [Example 104, R-4-(2,6-Difluoro-phenyl)-7-fluoro-2-(2-methyl-piperazin-1-yl)-quinazoline] were, in that order, 7.56 and 7.44. For `Clc1ccc2nc(N3CCNCC3)nc(-c3ccccc3)c2c1` [Example 128, 6-Chloro-4-phenyl-2-piperazin-1-yl-quinazoline], in that order: 7.94 and 7.45. Molecule `CN1CCN(c2nc(-c3ccc(F)c(F)c3)c3ccccc3n2)CC1` [Example 114, 4-(3,4-Difluoro-phenyl)-2-(4-methyl-piperazin-1-yl)-quinazoline] had a pKi in assay [1] of 5.96. In the case of `Cc1ccc(F)cc1-c1nc(N2CCNCC2)nc2cc(F)ccc12` [Example 137, 7-Fluoro-4-(5-fluoro-2-methyl-phenyl)-2-piperazin-1-yl-quinazoline], the results for the pKi in assay [1] and in assay [2] were 6.72 and 7.78, respectively.

As to `Fc1ccc(-c2nc(N3CCNCC3)c3ccccc3n2)c(F)c1` [Example 161, 2-(2,4-Difluoro-phenyl)-4-piperazin-1-yl-quinazoline], the negative logarithm of the Ki (pKi) in assay [1] is 6.42; in assay [2], 5.46.

Consider `CNC1CCN(c2nc(-c3c(F)cccc3F)c3ccccc3n2)C1` (stereo not shown) [Example 149, {1-[4-(2,6-Difluoro-phenyl)-quinazolin-2-yl)-pyrrolidin-3-yl}-methyl-amine], for which the negative-log Ki (pKi) in assay [1] was 5.79; in assay [2], 6.87. For `Fc1ccc2nc(N3CCNCC3)nc(-c3ccccc3)c2c1` [Example 92, 6-Fluoro-4-phenyl-2-piperazin-1-yl-quinazoline], in that order: 7.28 and 7.47.

For the molecule `Fc1ccc(-c2nc(N3CCNCC3)nc3cc(F)ccc23)c(F)c1` [Example 140, 4-(2,4-Difluoro-phenyl)-7-fluoro-2-piperazin-1-yl-quinazoline], the negative-log Ki (pKi) in assay [1] is 7.78; in assay [2], 7.55. For `Fc1ccc(-c2nc(N3CCNCC3)nc3cc(F)c(F)cc23)c(F)c1` [Example 147, 4-(2,4-Difluoro-phenyl)-6,7-difluoro-2-piperazin-1-yl-quinazoline], in that order: 7.59 and 7.55. The like results for `Clc1ccc2c(-c3ccccc3)nc(N3CCNCC3)nc2c1` [Example 89, 7-Chloro-4-phenyl-2-piperazin-1-yl-quinazoline] were, in that order, 6.96 and 7.31. For `Clc1ccc(Cl)c(-c2nc(N3CCNCC3)nc3ccccc23)c1` [Example 125, 4-(2,5-dichloro-phenyl)-2-piperazin-1-yl-quinazoline], in that order: 6.20 and 7.49. Consider `C[C@H]1CNCCN1c1nc(-c2c(F)cccc2Cl)c2ccccc2n1` [Example 85, S-4-(2-Chloro-6-fluoro-phenyl)-2-(2-methyl-piperazin-1-yl)-quinazoline], for which the pKi in assay [1] is 6.58; in assay [2], 7.58.

Turning to `CNC1CCN(c2nc(-c3cccc(F)c3F)c3ccccc3n2)CC1` [Example 158], the pKi in assay [1] was 5.22; in assay [2], 6.68.

Consider `Cc1cc(F)ccc1-c1nc(N2CCNCC2)nc2cc(F)ccc12` [Example 117, 7-Fluoro-4-(4-fluoro-2-methyl-phenyl)-2-piperazin-1-yl-quinazoline], for which the figures for the negative logarithm of the Ki (pKi) in assay [1] and in assay [2] were 6.94 and 7.48, respectively. In the case of `COc1cccc(-c2nc(N3CCNCC3)nc3ccccc23)c1` [Example 90, 4-(3-methoxy-phenyl)-2-piperazin-1-yl-quinazoline], the pKi in assay [1] is 6.82; in assay [2], 7.84. Turning to `Fc1ccc2c(-c3nccs3)nc(N3CCNCC3)nc2c1` [Example 135, 7-Fluoro-2-piperazin-1-yl-4-thiazol-2-yl-quinazoline], the negative logarithm of the Ki (pKi) is 6.50 in assay [1] and 7.25 in assay [2].

Regarding `N[C@H]1CCN(c2nc(-c3c(F)cccc3F)c3ccc(F)cc3n2)C1` [Example 94, S-1-[4-(2,6-Difluoro-phenyl)-7-fluoro-quinazolin-2-yl]-pyrrolidin-3-ylamine], the negative logarithm of the Ki (pKi) was 7.80 in assay [1] and 7.63 in assay [2]. On to `CC[C@H]1CNCCN1c1nc(-c2ccc(F)cc2F)c2ccccc2n1` [Example 165, S-4-(2,4-Difluoro-phenyl)-2-(2-ethyl-piperazin-1-yl)-quinazoline], for which the negative-log Ki (pKi) in assay [1] was 7.84; in assay [2] it was 7.51.

For `C[C@H]1CNCCN1c1nc(-c2cccc(F)c2F)c2ccc(F)cc2n1` [Example 124, S-4-(2,3-Difluoro-phenyl)-7-fluoro-2-(2-methyl-piperazin-1-yl)-quinazoline], the pKi in assay [1] was 7.55; in assay [2], 7.67.

With `Fc1cccc2c(-c3ccccc3)nc(N3CCNCC3)nc12` [Example 133, 8-Fluoro-4-phenyl-2-piperazin-1-yl-quinazoline], the negative-log Ki (pKi) was 5.80 in assay [1] and 7.66 in assay [2]. For `Fc1ccc2c(-c3c(F)cccc3F)nc(N[C@@H]3CCNC3)nc2c1` [Example 84, R-[4-(2,6-Difluoro-phenyl)-7-fluoro-quinazolin-2-yl]-pyrrolidin-3-yl-amine], in that order: 6.19 and 7.30. For `N[C@H]1CCN(c2nc(-c3c(F)cccc3F)c3ccccc3n2)C1` [Example 96, S-1-[4-(2,6-Difluoro-phenyl)-quinazolin-2-yl]-pyrrolidin-3-ylamine], the pKi in assay [1] is 7.15; in assay [2], 7.91.

As for `C[C@@H]1CNCCN1c1nc(-c2ccccc2)c2ccc(F)cc2n1` [Example 105, R-7-Fluoro-2-(2-methyl-piperazin-1-yl)-4-phenyl-quinazoline], the pKi in assay [1] is 7.19; in assay [2], 7.78. For `CN1CCN(c2nc(-c3ccc(F)c(F)c3)c3ccccc3n2)CC1` [Example 103, 4-(3,4-Difluoro-phenyl)-2-(4-methyl-piperazin-1-yl)-quinazoline], in assay [1], the negative logarithm of the Ki (pKi) was 6.19. `COc1ccccc1-c1nc(C2CCNCC2)nc2ccccc12` [Example 46, 4-(2-Methoxy-phenyl)-2-piperidin-4-yl-quinazoline hydrochloride] showed a pKi in assay [2] of 7.22. In the case of `Clc1ccccc1-c1nc(N2CCNCC2)nc2ccccc12` [Example 22, 4-(2-Chloro-phenyl)-2-piperazin-1-yl-quinazoline hydrochloride], the negative logarithm of the Ki (pKi) in assay [2] is 8.32. On the same count and under the same terms, the value for `CN1CCC(c2nc(-c3c(F)cccc3Cl)c3ccccc3n2)CC1` [Example 74, 4-(2-Chloro-6-fluoro-phenyl)-2-(1-methyl-piperidin-4-yl)-quinazoline] was 7.64; that for `Fc1ccccc1-c1nc(C2CCCNC2)nc2ccccc12` (stereo not shown) [Example 77, 4-(2-Fluoro-phenyl)-2-piperidin-3-yl-quinazoline] was 7.64; that for `Fc1ccccc1-c1nc(C2(c3ccccc3)CCNCC2)nc2ccccc12` [Example 79, 4-(2-Fluoro-phenyl)-2-(4-phenyl-piperidin-4-yl)-quinazoline] was 7.20. Still for that read-out and setting: the value for `c1ccc(-c2nc(N3CCNCC3)nc3ccccc23)cc1` [Example 3, 4-Phenyl-2-piperazin-1-yl-quinazoline] was 8.32; that for `CN1CCC(c2nc(-c3ccccc3F)c3ccccc3n2)CC1` [Example 43, 4-(2-Fluoro-phenyl)-2-(1-methyl-piperidin-4-yl)-quinazoline] was 7.53.
